Measurements reported in US9321790B2, “Pyrimidinone derivatives as antimalarial agents” (SANOFI, priority 2012, dated 2016).

Key:
[1] = test system: Plasmodium falciparum (strain NF54); assay: Antimalarial activity test: growth of Plasmodium falciparum in infected human erythrocytes, 3H-hypoxanthine incorporation; format: cell-based; details: strain NF54 sensitive to chloroquine, 72 h total incubation
Procedure: The compounds according to the invention underwent pharmacological trials to determine their inhibitory effect on the growth of Plasmodium falciparum (strain NF54 sensitive to inhibition with chloroquine) in an in vitro test using infected human erythrocytes. The growth of the parasites is measured via the incorporation of tritiated hypoxanthine compared with the incorporation in the absence of drug. The tests are performed in 96-well microplates (Falcon™ 96-well microtiter plates, ref. No. 353072) in RPMI 1640 solutions (10.44 g/l) (without hypoxanthine) with HEPES (5.94 g/l), NaHCO3 (2.1 g/l), neomycin ([…])+AlbumaxR II (5 g/l) supplemented with human erythrocytes with a final hematocrit of 1.25% and a final parasitemia of 0.15%.
The stock solution of the compounds is prepared at 10 mg/mL in DMSO. For the test, fresh solutions at the desired concentrations are prepared in RPMI medium. For the test, 100 μl of compound are mixed with 100 μl of infected blood. For the determination of the IC50 values, the compounds are tested in twofold serial dilution.
The plates are incubated at 37° C. under a humid atmosphere with 93% N2, 4% CO2 and 3% O2. After 48 hours, 50 μl of ^3H-hypoxanthine (=0.5 μCi) in RPMI medium are added to each well and incubation is continued for a further 24 hours. Next, the plates are washed with distilled water and the cell lyzate is transferred onto fiberglass filters. The filters are dried and the radioactivity is determined by liquid scintillation. The results in cpm are converted into percentages of inhibition. The inhibitory activity is given by the concentration that inhibits 50% of the growth of the parasite relative to a control without compound.

human PI3Kα = human PI3Kα (Homo sapiens (Human), UniProt P42336); assay: Human PI3Kα activity test (luciferin/luciferase ATP consumption, KinaseGlo); format: biochemical; details: PI3Kα (p110α/p85α), 50 μM PIP2, 2 μM ATP, 90 minutes; read-out: IC50 Human PI3Kα
Procedure: The test uses a luciferin/luciferase system to measure the concentration of ATP and its consumption during the enzymatic reaction.
After 90 minutes, the reaction is quenched by adding 20 μl/well of KinaseGlo reagent (Promega V6713). After 10 minutes in the dark, the luminescence is read using a PHERAStar microplate reader (reading at 0.8 sec/well).

[2] = Plasmodium falciparum, Erythrocyte

Sequence of human PI3Kα (P42336 whole entry): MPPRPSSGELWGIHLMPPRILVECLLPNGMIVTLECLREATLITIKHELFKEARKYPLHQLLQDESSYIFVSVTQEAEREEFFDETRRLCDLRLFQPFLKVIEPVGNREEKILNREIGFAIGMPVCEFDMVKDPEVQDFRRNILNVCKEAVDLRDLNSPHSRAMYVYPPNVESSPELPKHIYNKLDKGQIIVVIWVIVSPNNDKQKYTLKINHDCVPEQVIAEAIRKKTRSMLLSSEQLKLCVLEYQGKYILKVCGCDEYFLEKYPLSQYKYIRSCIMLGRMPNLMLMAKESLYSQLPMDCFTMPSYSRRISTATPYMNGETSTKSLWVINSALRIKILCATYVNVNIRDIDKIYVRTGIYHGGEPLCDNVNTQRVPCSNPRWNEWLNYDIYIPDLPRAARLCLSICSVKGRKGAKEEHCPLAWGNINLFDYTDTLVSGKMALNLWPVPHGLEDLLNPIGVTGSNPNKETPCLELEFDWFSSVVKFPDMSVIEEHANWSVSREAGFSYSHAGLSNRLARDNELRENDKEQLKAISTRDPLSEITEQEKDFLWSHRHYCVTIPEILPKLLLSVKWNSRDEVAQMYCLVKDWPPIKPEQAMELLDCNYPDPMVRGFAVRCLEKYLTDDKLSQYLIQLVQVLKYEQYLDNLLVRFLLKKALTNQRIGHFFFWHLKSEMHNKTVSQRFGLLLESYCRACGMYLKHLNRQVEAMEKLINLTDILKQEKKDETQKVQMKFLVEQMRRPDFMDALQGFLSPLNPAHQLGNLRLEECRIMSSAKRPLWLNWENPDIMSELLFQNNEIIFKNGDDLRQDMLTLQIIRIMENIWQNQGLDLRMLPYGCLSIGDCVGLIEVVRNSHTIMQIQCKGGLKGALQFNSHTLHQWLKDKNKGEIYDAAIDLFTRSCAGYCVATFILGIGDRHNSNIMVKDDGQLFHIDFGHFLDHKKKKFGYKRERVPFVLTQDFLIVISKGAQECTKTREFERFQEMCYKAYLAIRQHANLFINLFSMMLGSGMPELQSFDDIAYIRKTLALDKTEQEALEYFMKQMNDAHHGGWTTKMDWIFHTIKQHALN
Sequence of human PI3Kα (P27986 whole entry partner): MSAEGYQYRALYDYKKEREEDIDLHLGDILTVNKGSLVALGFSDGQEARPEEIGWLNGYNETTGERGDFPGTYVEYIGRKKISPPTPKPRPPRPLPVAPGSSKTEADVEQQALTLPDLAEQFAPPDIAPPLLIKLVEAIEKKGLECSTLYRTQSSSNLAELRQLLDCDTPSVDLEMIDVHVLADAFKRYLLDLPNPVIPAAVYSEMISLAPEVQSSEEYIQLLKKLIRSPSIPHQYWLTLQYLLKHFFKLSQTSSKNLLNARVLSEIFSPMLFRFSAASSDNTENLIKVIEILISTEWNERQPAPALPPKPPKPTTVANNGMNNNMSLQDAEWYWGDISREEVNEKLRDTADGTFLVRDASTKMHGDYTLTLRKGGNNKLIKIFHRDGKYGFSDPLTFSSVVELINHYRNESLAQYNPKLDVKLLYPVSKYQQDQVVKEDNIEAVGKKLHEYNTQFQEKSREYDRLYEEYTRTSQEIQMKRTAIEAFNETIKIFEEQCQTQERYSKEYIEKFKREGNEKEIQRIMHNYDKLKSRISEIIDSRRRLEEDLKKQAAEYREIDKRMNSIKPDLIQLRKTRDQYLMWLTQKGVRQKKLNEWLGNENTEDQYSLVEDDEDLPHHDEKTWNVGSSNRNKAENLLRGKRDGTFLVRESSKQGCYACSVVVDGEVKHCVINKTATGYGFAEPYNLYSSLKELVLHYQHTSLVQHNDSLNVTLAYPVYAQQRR

| Structure (SMILES) | IC50 [1, 2] | IC50 (human PI3Kα) | IC50 [1] |
| --- | --- | --- | --- |
| O=C(CN1c2nc(N3C[C@@H]4C[C@H]3CO4)cc(=O)n2CC[C@H]1C(F)(F)F)c1cnc2c(c1)OCCN2 [Compound 38, (8S)-9-[2-(3,4-dihydro-2H-pyrido[3,2-b][1,4]oxazin-7-yl)-2-oxoethyl]-2-(1S,4S)-2-oxa-5-azabicyclo[2.2.1]hept-5-yl-8-trifluoromethyl-6,7,8,9-tetrahydropyrimido[1,2-a]pyrimidin-4-one] | 0.14 µM | 5.77 µM |  |
| Cc1ncoc1C(=O)CN1c2nc(N3C[C@@H]4C[C@H]3CO4)cc(=O)n2CC[C@H]1C(F)(F)F [Compound 39, (8S)-9-[2-(4-Methyloxazol-5-yl)-2-oxoethyl]-2-(1S,4S)-2-oxa-5-azabicyclo[2.2.1]hept-5-yl-8-trifluoromethyl-6,7,8,9-tetrahydropyrimido[1,2-a]pyrimidin-4-one] | 0.098 µM | > 10 µM |  |
| Cc1ncsc1C(=O)CN1c2nc(N3C[C@@H]4C[C@H]3CO4)cc(=O)n2CC[C@H]1C(F)(F)F [Compound 43, (8S)-9-[2-(4-methylthiazol-5-yl)-2-oxoethyl]-2-(1S,4S)-2-oxa-5-azabicyclo[2.2.1]hept-5-yl-8-trifluoromethyl-6,7,8,9-tetrahydropyrimido[1,2-a]pyrimidin-4-one] | 0.042 µM | > 10 µM |  |
| COc1ccc(C(=O)CN2c3nc(N4C[C@@H]5C[C@H]4CO5)cc(=O)n3CC[C@H]2C(F)(F)F)cn1 [Compound 45, (8S)-9-[2-(6-methoxypyrid-3-yl)-2-oxoethyl]-2-(1S,4S)-2-oxa-5-azabicyclo[2.2.1]hept-5-yl-8-trifluoromethyl-6,7,8,9-tetrahydropyrimido[1,2-a]pyrimidin-4-one] | 0.112 µM | > 10 µM |  |
| O=C(CN1c2nc(N3C[C@@H]4C[C@H]3CO4)cc(=O)n2CC[C@H]1C(F)(F)F)c1ccc(F)cc1F [Compound 48, (8S)-9-[2-(2,4-difluorophenyl)-2-oxoethyl]-2-(1S,4S)-2-oxa-5-azabicyclo[2.2.1]hept-5-yl-8-trifluoromethyl-6,7,8,9-tetrahydropyrimido[1,2-a]pyrimidin-4-one] | 0.027 µM | > 10 µM |  |
| CCC(O)(CC)CCN1c2nc(N3C[C@@H]4C[C@H]3CO4)cc(=O)n2CC[C@H]1C(F)(F)F [Compound 49, (8S)-9-(3-ethyl-3-hydroxypentyl)-2-(1S,4S)-2-oxa-5-azabicyclo[2.2.1]hept-5-yl-8-trifluoromethyl-6,7,8,9-tetrahydropyrimido[1,2-a]pyrimidin-4-one] | 0.006 µM | 2.74 µM |  |
| Cn1nc(CN2c3nc(N4C[C@@H]5C[C@H]4CO5)cc(=O)n3CC[C@H]2C(F)(F)F)c2ccccc21 [Compound 51, (8S)-9-(1-methyl-1H-indazol-3-ylmethyl)-2-(1S,4S)-2-oxa-5-azabicyclo[2.2.1]hept-5-yl-8-trifluoromethyl-6,7,8,9-tetrahydropyrimido[1,2-a]pyrimidin-4-one] | 0.065 µM | > 10 µM |  |
| O=C(CN1c2nc(N3C[C@@H]4C[C@H]3CO4)cc(=O)n2CC[C@H]1C(F)(F)F)c1cnc(OCC2CC2)nc1 [Compound 52, (8S)-9-[2-(2-Cyclopropylmethoxypyrimidin-5-yl)-2-oxoethyl]-2-(1S,4S)-2-oxa-5-azabicyclo[2.2.1]hept-5-yl-8-trifluoromethyl-6,7,8,9-tetrahydropyrimido[1,2-a]pyrimidin-4-one] | 0.13 µM | > 10 µM |  |
| Cc1noc(C)c1C(=O)CN1c2nc(N3C[C@@H]4C[C@H]3CO4)cc(=O)n2CC[C@H]1C(F)(F)F [Compound 53, (8S)-9-[2-(3,5-dimethylisoxazol-4-yl)-2-oxoethyl]-2-(1S,4S)-2-oxa-5-azabicyclo[2.2.1]hept-5-yl-8-trifluoromethyl-6,7,8,9-tetrahydropyrimido[1,2-a]pyrimidin-4-one] | 0.87 µM | > 10 µM |  |
| CCOC(=O)Nc1ccc(C(=O)CN2c3nc(N4C[C@@H]5C[C@H]4CO5)cc(=O)n3CC[C@H]2C(F)(F)F)cn1 [Compound 57, ethyl {5-[2-((S)8-(1S,4S)-2-oxa-5-azabicyclo[2.2.]hept-5-yl-6-oxo-2-trifluoromethyl-3,4-dihydro-2H,6H-pyrimido[1,2-a]pyrimidin-1-yl)acetyl]pyrid-2-yl}carbamate] | 0.065 µM | > 10 µM |  |
| COC(=O)Nc1ccc(C(=O)CN2c3nc(N4C[C@@H]5C[C@H]4CO5)cc(=O)n3CC[C@H]2C(F)(F)F)cn1 [Compound 58, {5-[2-((S)-8-(1S,4S)-2-Oxa-5-azabicyclo[2.2.1]hept-5-yl-6-oxo-2-trifluoromethyl-3,4-dihydro-2H,6H-pyrimido[1,2-a]pyrimidin-1-yl)acetyl]pyrid-2-yl}carbamic acid methyl ester] |  | 6.4 µM | 0.053 µM |

The remaining lines, values ahead:

| IC50 [1, 2] | IC50 (human PI3Kα) | IC50 [1] | Structure (SMILES) |
| --- | --- | --- | --- |
| 0.08 µM | > 10 µM |  | O=C(CN1c2nc(N3C[C@@H]4C[C@H]3CO4)cc(=O)n2CC[C@H]1C(F)(F)F)c1ccc(F)c(F)c1 [Compound 40, (S)-9-[2-(3,4-Difluorophenyl)-2-oxoethyl]-2-(1S,4S)-2-oxa-5-azabicyclo[2.2.1]hept-5-yl-8-trifluoromethyl-6,7,8,9-tetrahydropyrimido[1,2-a]pyrimidin-4-one] |
| 0.93 µM | 4.2 µM |  | O=C(CN1c2nc(N3C[C@@H]4C[C@H]3CO4)cc(=O)n2CC[C@H]1C(F)(F)F)c1ccc(N2CCOCC2)cc1 [Compound 41, (8S)-9-[2-(4-Morpholin-4-ylphenyl)-2-oxoethyl]-2-(1S,4S)-2-oxa-5-azabicyclo[2.2.1]hept-5-yl-8-trifluoromethyl-6,7,8,9-tetrahydropyrimido[1,2-a]pyrimidin-4-one] |
|  | > 10 µM | 0.08 µM | N#Cc1ccc(C(=O)CN2c3nc(N4C[C@@H]5C[C@H]4CO5)cc(=O)n3CC[C@H]2C(F)(F)F)cc1 [Compound 42, 4-[2-((S)-8-(1S,4S)-2-Oxa-5-azabicyclo[2.2.1]hept-5-yl-6-oxo-2-trifluoromethyl-3,4-dihydro-2H,6H-pyrimido[1,2-a]pyrimidin-1-yl)acetyl]benzonitrile] |
| 0.106 µM | > 10 µM |  | O=C(CN1c2nc(N3C[C@@H]4C[C@H]3CO4)cc(=O)n2CC[C@H]1C(F)(F)F)c1cncc(Cl)c1 [Compound 44, (8S)-9-[2-(5-Chloropyrid-3-yl)-2-oxoethyl]-2-(1S,4S)-2-oxa-5-azabicyclo[2.2.1]hept-5-yl-8-trifluoromethyl-6,7,8,9-tetrahydropyrimido[1,2-a]pyrimidin-4-one] |
| 0.398 µM | > 10 µM |  | Cc1nocc1C(=O)CN1c2nc(N3C[C@@H]4C[C@H]3CO4)cc(=O)n2CC[C@H]1C(F)(F)F [Compound 46, (8S)-9-[2-(3-Methylisoxazol-4-yl)-2-oxoethyl]-2-(1S,4S)-2-oxa-5-azabicyclo[2.2.1]hept-5-yl-8-trifluoromethyl-6,7,8,9-tetrahydropyrimido[1,2-a]pyrimidin-4-one] |
| 0.013 µM | > 10 µM |  | O=C(CN1c2nc(N3C[C@@H]4C[C@H]3CO4)cc(=O)n2CC[C@H]1C(F)(F)F)c1ccc2snnc2c1 [Compound 47, (8S)-9-(2-benzo[1,2,3]thiadiazol-5-yl-2-oxoethyl)-2-(1S,4S)-2-oxa-5-azabicyclo[2.2.1]hept-5-yl-8-trifluoromethyl-6,7,8,9-tetrahydropyrimido[1,2-a]pyrimidin-4-one] |
| 0.008 µM | 4.3 µM |  | CC(C)(O)CCN1c2nc(N3C[C@@H]4C[C@H]3CO4)cc(=O)n2CC[C@H]1C(F)(F)F [Compound 50, (8S)-9-(3-hydroxy-3-methylbutyl)-2-(1S,4S)-2-oxa-5-azabicyclo[2.2.1]hept-5-yl-8-trifluoromethyl-6,7,8,9-tetrahydropyrimido[1,2-a]pyrimidin-4-one] |
| 0.01 µM | 2.21 µM |  | CCC(O)(CC)CN1c2nc(N3C[C@@H]4C[C@H]3CO4)cc(=O)n2CC[C@H]1C(F)(F)F [Compound 54, (8S)-9-(2-ethyl-2-hydroxybutyl)-2-(1S,4S)-2-oxa-5-azabicyclo[2.2.1]hept-5-yl-8-trifluoromethyl-6,7,8,9-tetrahydropyrimido[1,2-a]pyrimidin-4-one] |
|  | > 10 µM | 0.028 µM | N#Cc1cccc(C(=O)CN2c3nc(N4C[C@@H]5C[C@H]4CO5)cc(=O)n3CC[C@H]2C(F)(F)F)c1 [Compound 55, 3-[2-((S)-8-(1S,4S)-2-Oxa-5-azabicyclo[2.2.1]hept-5-yl-6-oxo-2-trifluoromethyl-3,4-dihydro-2H,6H-pyrimido[1,2-a]pyrimidin-1-yl)acetyl]benzonitrile] |
| 0.045 µM | > 10 µM |  | CC(C)C(=O)CN1c2nc(N3C[C@@H]4C[C@H]3CO4)cc(=O)n2CC[C@H]1C(F)(F)F [Compound 56, (8S)-9-(3-methyl-2-oxobutyl)-2-(1S,4S)-2-oxa-5-azabicyclo[2.2.1]hept-5-yl-8-trifluoromethyl-6,7,8,9-tetrahydropyrimido[1,2-a]pyrimidin-4-one] |
